{"source": "patent US9926585B2", "about": "“Method for producing a minor ginsenoside using a ginsenoside glycosidase” (INTELLIGENT SYNTHETIC BIOLOGY CENTER, priority 2015, dated 2018)", "molecules": {"B1": {"name": "MT619: ginsenoside glycosidase of SEQ ID NO: 1 screened from Microbacterium testaceum, 619 amino acids (protein, listed as Microbacterium testaceum)", "chain": "MTHARFLTAPDGTRFRDLNGNGVMDPYENPALSVEERTDDLVSRLSLEEKVGLMFQTVIEVGDEGELLEAPGKISKSPTTTVVVGKHMNHFNVHAIRTARQAATWNNNLQALAETTPHGIPVTISTDPRHAFVENTGVAFSAGPFSQWPEGLGLAALDDVDTVREFAEVARREYVAVGIRAALHPQIDLATEPRWGRQAQTLGQDAARVTEFTAAYLQGFQGDELGPDSVACTTKHFPGGGPQLDGEDAHFPYGREQVYPGGMFDYHLEPFREAIRCGTAGMMPYYGMPVGLEVDGLPIEEVGFGYNRQIITGLLREQLGYDGVVVTDWELVNDNHVGDQVLPARAWGVEHLSAVERMEKILDAGSDQFGGEECVEMLVDLVRAGRVSEERIDESVRRLLRVKFQLGLFDDPYVDVDEAERIVGNAEFRALGERAQAHSLTVLVNEGDVLPLRPAGAVYIEGFRPDDVAELGRVVTDPAEADLAIVRIGAPFDPRDDLFLEAWFHQGSLEFAPGLVYRLQQIAASCPLILVVNLDRPAILTPFVGHAAAIVADYGSSSAAVLDALTGRVPPRGRLPIEIPRSMDAVRSSREDVPSDTGDPVFPVHHGVELKVSTGAQRG"}}, "key": {"[1]": {"tested_on": "ginsenoside glycosidase MT619", "test": "Effects of metals and chemical reagents on MT619 activity (residual activity, pNPG substrate)", "assay_type": "biochemical, Microbacterium testaceum"}, "[2]": {"tested_on": "ginsenoside glycosidase MT619", "test": "Substrate specificity of MT619 with chromogenic ONP and PNP substrates", "assay_type": "biochemical, Microbacterium testaceum", "details": "for substrate specificity of MT619: 2.0 mM substrate, 37° C.; for Relative activity (%) MT619: final substrate concentration 2.0 mM, 37° C. for 5 minutes, relative to enzymatic activity for pNP-β-D-glucopyranoside", "method": "In order to analyze substrate specificity of […], 2.0 mM chromogenic O-nitrophenyl (ONP) and p-nitrophenyl (PNP) were used as substrates, and measured at 37° C. for 5 minutes. 1 activity unit was defined as the release of 1 μmol of o-nitrophenol or p-nitrophenol per minute. Substrates used for analysis were pNP-α-L-arabinofuranoside, pNP-β-L-arabinopyranoside, pNP-α-L-D-fucopyranoside, pNP-α-L-rhamnopyranoside, pNP-α-D-glucopyranoside, pNP-α-D-mannopyranoside, pNP-β-D-galactopyranoside, oNP-β-D-glucopyranoside, oNP-β-D-fucopyranoside, pNP-β-D-xylopyranoside, pNP-β-L-arabinofuranoside, oNP-β-D-fucopyranoside, oNP-α-D-galactopyranoside, and pNP-β-D-glucopyranoside, which were purchased from Sigma."}, "[3]": {"tested_on": "ginsenoside glycosidase MT619", "test": "Ginsenoside conversion ability of MT619 (TLC)", "assay_type": "biochemical, Microbacterium testaceum", "details": "2.0 mg/ml MT619, 2.0 mg/ml substrate, 37° C., 1.5 hr", "method": "In order to analyze the specificity and selectivity of the enzyme for the hydrolysis of a sugar attached at the C-6 position of ginsenoside, ginsenoside Re, Rg1 and Rg2 were used as the substrates.\n2.0 mg/ml of MT619 in 50 mM sodium phosphate buffer (pH 7.0) was reacted with each 2.0 mg/ml of the three substrates in 50 mM sodium phosphate (pH 6.0) at an equal volume at 37° C. In order to measure cleavage activity of MT619, the samples were collected at 1.5 hr after reaction, and an equal volume of water-saturated butanol was added to stop the reaction. The n-butanol fraction was evaporated to dryness, and residual material was dissolved in CH3OH and then examined by thin layer chromatography (TLC), and the results are given in FIG. 4."}, "[4]": {"test": "F1 production ability from ginsenoside Rg1, MT619 compared with BgpA", "assay_type": "biochemical", "description": "In order to evaluate production ability of MT619 to produce F1 by using Rg1 as a substrate, its F1 production ability was compared with that of ginsenoside glucosidase derived from […].\nBgpA derived from Terrabacter ginsenosidimutans, which is known to produce F1 by using ginsenoside Rg1 as a substrate, was used as a comparative control group."}, "[5]": {"test": "Effect of pH on enzymatic activity and stability of MT619", "assay_type": "biochemical", "method": "In order to measure the effect of pH on the enzymatic activity of MT619, 2.0 mM pNPGlc (p-nitrophenyl-D-glucopyranoside; Sigma) was used as a substrate, and pH was adjusted using the following buffer (50 mM). pH range of 2 to 10: KCl—HCl (pH 2), glycine-HCl (pH 3), sodium acetate (pH 4 and pH 5), sodium phosphate (pH 6 and pH 7), Tris-HCl (pH 8 and pH 9) and glycine-sodium hydroxide (pH 10).\nFurther, the effect of pH on the enzymatic stability was measured. Enzyme was incubated in each of the above mentioned buffers at 4° C. for 24 hours, and then pNPGlc was analyzed in 50 mM potassium buffer to measure the enzymatic stability according to pH change. Residual activity was analyzed according to a standard analytical procedure, and the results are given in FIG. 2 as an activity percentage obtained at the optimum pH."}, "[6]": {"assay_type": "biochemical", "details": "2.0 mM pNPGlc, 50 mM potassium phosphate buffer, 10 minutes, 4 to 65° C.", "method": "In order to measure the effect of temperature on the enzymatic activity of MT619, 2.0 mM pNPGlc (p-nitrophenyl-3-Dglucopyranoside; Sigma) was used to analyze the temperature-dependent activity in the 50 mM potassium phosphate buffer at the optimum pH for 10 minutes while varying the temperature between 4 to 65° C.\nFurther, in order to measure the effect of temperature on the enzymatic stability of MT619, the equivalent amount of enzyme was incubated in 50 mM potassium phosphate buffer within the same temperature range for 30 minutes. In detail, the sample was cooled in ice for 10 minutes, and temperature stability analysis was performed by measuring the residual activity according to a standard analytical procedure, and the results are given in FIG. 3."}, "[7]": {"details": "10 mM reagent, 37° C. for 30 minutes, pNPG substrate, residual activity as percentage of activity without the compounds"}}, "note": "“Also recorded” adds a separate entry of the source. Like-named read-outs stand apart in the source and are kept apart here."}
{"molecule": "[Cl-].[Cl-].[Zn+2]", "note": "[ZnCl2]", "values": [{"measurement": "effect of ions on enzymatic activity of MT619", "setting": "[1]; 10 mM, 37° C., 30 minutes", "value": "strongly inhibited"}]}
{"molecule": "[Cl-].[K+]", "note": "[KCl]", "values": [{"measurement": "Relative activity (%)", "setting": "[1]; [7]", "value": "95.3 ± 1.1", "unit": "%"}, {"measurement": "effect of ions on enzymatic activity of MT619", "setting": "[1]; 10 mM, 37° C., 30 minutes, listed as K^+", "value": "did not greatly increase; also recorded: not greatly increased"}]}
{"molecule": "O=[N+]([O-])c1ccccc1O[C@@H]1O[C@H](CO)[C@@H](O)[C@H](O)[C@H]1O", "note": "[oNP-β-glucopyranoside, oNP-β-D-glucopyranoside]", "values": [{"measurement": "substrate specificity of MT619", "setting": "[2]", "value": "showed substrate specificity"}, {"measurement": "Relative activity (%) MT619", "setting": "[2]", "value": "28.7 ± 2.1", "unit": "%"}]}
{"molecule": "CC(C)=CCC[C@](C)(O[C@@H]1O[C@H](CO)[C@@H](O)[C@H](O)[C@H]1O)[C@H]1CC[C@]2(C)[C@@H]1[C@H](O)C[C@@H]1[C@@]3(C)CC[C@H](O)C(C)(C)[C@@H]3[C@@H](O[C@@H]3O[C@H](CO)[C@@H](O)[C@H](O)[C@H]3O)C[C@]12C", "note": "[Rg1, ginsenoside Rg1]", "values": [{"measurement": "conversion of ginsenoside by MT619 (TLC, words)", "setting": "[3]", "value": "conversion of ginsenoside Rg1 into F1 was confirmed; also recorded: converted into ginsenoside F1"}]}
{"molecule": "[Cl][Hg][Cl]", "note": "[HgCl2]", "values": [{"measurement": "effect of ions on enzymatic activity of MT619", "setting": "[1]; 10 mM, 37° C., 30 minutes", "value": "strongly inhibited"}]}
{"molecule": "O[C@H](CS)[C@H](O)CS", "note": "(racemic) [DTT, dithiothreitol]", "values": [{"measurement": "Relative activity (%)", "setting": "[1]; [7]", "value": "79.6 ± 1.6", "unit": "%"}]}
{"molecule": "[Cl][Cu][Cl]", "note": "[CuCl2]", "values": [{"measurement": "effect of ions on enzymatic activity of MT619", "setting": "[1]; 10 mM, 37° C., 30 minutes", "value": "strongly inhibited"}]}
{"molecule": "O=[N+]([O-])c1ccc(O[C@@H]2O[C@H](CO)[C@@H](O)[C@H](O)[C@H]2O)cc1", "note": "[pNP-β-D-glucopyranoside, p-nitrophenyl-β-D-glucopyranoside]", "values": [{"measurement": "substrate specificity of MT619", "setting": "[2]", "value": "highest substrate specificity"}, {"measurement": "Relative activity (%) MT619", "setting": "[2]", "value": "100 ± 1.2", "unit": "%"}]}
{"molecule": "[Cl-].[Cl-].[Co+2]", "note": "[CoCl2]", "values": [{"measurement": "Relative activity (%)", "setting": "[1]", "value": "17.9 ± 0.5", "unit": "%"}, {"measurement": "effect of ions on enzymatic activity of MT619", "setting": "[1]", "value": "strongly inhibited"}]}
{"molecule": "CC(C)=CCC[C@](C)(O[C@@H]1O[C@H](CO)[C@@H](O)[C@H](O)[C@H]1O)[C@H]1CC[C@]2(C)[C@@H]1[C@H](O)C[C@@H]1[C@@]3(C)CC[C@H](O)C(C)(C)[C@@H]3[C@@H](O[C@@H]3O[C@H](CO)[C@@H](O)[C@H](O)[C@H]3O[C@@H]3O[C@@H](C)[C@H](O)[C@@H](O)[C@H]3O)C[C@]12C", "note": "[Re, ginsenoside Re]", "values": [{"measurement": "conversion of ginsenoside by MT619 (TLC, words)", "setting": "[3]", "value": "converted into ginsenoside F1"}]}
{"molecule": "[Ca+2].[Cl-].[Cl-]", "note": "[CaCl2]", "values": [{"measurement": "Relative activity (%)", "setting": "[1]; [7]", "value": "132.8 ± 2.4", "unit": "%"}, {"measurement": "effect of ions on enzymatic activity of MT619", "setting": "[1]; 10 mM, 37° C., 30 minutes, listed as Ca^2+", "value": "did not greatly increase; also recorded: not greatly increased"}]}
{"molecule": "[Cl-].[Cl-].[Mg+2]", "note": "[MgCl2]", "values": [{"measurement": "Relative activity (%)", "setting": "[1]; [7]", "value": "112.7 ± 4.1", "unit": "%"}]}
{"molecule": "[Cl-].[Na+]", "note": "[Nacl, NaCl]", "values": [{"measurement": "Relative activity (%)", "setting": "[1]; [7]", "value": "128.1 ± 3.7", "unit": "%"}, {"measurement": "effect of ions on enzymatic activity of MT619", "setting": "[1]; 10 mM, 37° C., 30 minutes, listed as Na^+", "value": "did not greatly increase; also recorded: not greatly increased"}]}
{"molecule": "CCCCCCCCCCCCOS(=O)(=O)[O-].[Na+]", "note": "[SDS]", "values": [{"measurement": "Relative activity (%)", "setting": "[1]; [7]", "value": "80.6 ± 6.1", "unit": "%"}]}
{"molecule": "O=C(O)CN(CCN(CC(=O)O)CC(=O)O)CC(=O)O", "note": "[EDTA]", "values": [{"measurement": "Relative activity (%)", "setting": "[1]", "value": "80.9 ± 2.3", "unit": "%"}]}
{"molecule": "[Cl][Mn][Cl]", "note": "[MnCl2]", "values": [{"measurement": "Relative activity (%)", "setting": "[1]; [7]", "value": "59.9 ± 2.6", "unit": "%"}]}
{"molecule": "OCCS", "note": "[Beta-Mercaptoethanol]", "values": [{"measurement": "Relative activity (%)", "setting": "[1]; [7]", "value": "94 ± 2", "unit": "%"}]}
{"molecule": "B1", "values": [{"measurement": "time of highest F1 production ability after initiation of the reaction", "setting": "[4]; enzyme 0.1 mg/ml, Rg1 substrate", "value": 2, "unit": "h"}, {"measurement": "F1 produced", "setting": "[4]; enzyme concentration 0.1 mg/ml, Rg1 (2.0 mg/ml) as substrate", "value": 1.3, "unit": "mg"}, {"measurement": "production of F1 relative to BgpA", "setting": "[4]; enzyme concentration 0.1 mg/ml, Rg1 as substrate", "value": 7, "unit": "times"}, {"measurement": "pH of highest activity and stability", "setting": "[5]; pH 2 to 10 buffers 50 mM, stability after 4° C. for 24 hours", "value": 7.0}, {"measurement": "pH of highest stability", "setting": "[5]; summary statement of Example 3-2", "value": 7.0}, {"measurement": "temperature of highest activity (optimum temperature)", "setting": "[6]", "value": 45, "unit": "°C"}]}
